Measured values as given in ChEMBL document CHEMBL1201862, “PubChem BioAssay data set” (2004).
Active and inactive are the calls of the source.

Experiments:
[1] = NIH-3T3 fibroblast cytotoxicity, dose response, cytotoxicity control, cell-based, fluorescence, Alamar Blue, secondary assay (AID 2327); assay type: functional;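 also: NIH-3T3 mouse fibroblasts cultured with fluconazole at 8 µg/mL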
[2] = microbe, parasite or virus in culture; assay type: functional; conditions: Mycobacterium tuberculosis
Bcl-2-related protein A1 = Bcl-2-related protein A1 (Mus musculus, UniProt Q07440); assay type: functional;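 also: confirmatory dose–response counterscreen on Bfl-1, used to check hits from a UBC13 polyubiquitin inhibitor campaign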
[3] = target: T1, Ubiquitin-conjugating enzyme E2 N (Homo sapiens, UniProt P61088); assay type: functional;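 also: Dose-response confirmation in a TR-FRET assay detecting UBC13-driven polyubiquitin chain formation, inhibition measured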
T1 sequence (P61088 whole entry): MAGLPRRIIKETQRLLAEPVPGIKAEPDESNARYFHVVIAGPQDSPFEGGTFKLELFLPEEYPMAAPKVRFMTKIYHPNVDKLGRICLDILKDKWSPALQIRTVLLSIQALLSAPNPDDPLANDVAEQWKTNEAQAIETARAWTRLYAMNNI

[4] = target: Heat shock protein HSP 90-alpha (Homo sapiens, UniProt P07900); assay type: functional, organism-based
Melanocortin receptor 4 = Melanocortin receptor 4 (Homo sapiens, UniProt P32245); experiment: inhibitors of MC4R cAMP signaling – cell-based, TR-FRET, biased antagonists, dose response (AID 602298); assay type: functional;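 also: antagonist potency against agonist-stimulated cAMP production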
[5] = target: Ribosomal protein S6 kinase alpha-3 (Homo sapiens, UniProt P51812); assay type: functional;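 also: measured within a kinome-wide profiling panel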
[6] = target: Serine/threonine-protein kinase TBK1 (Homo sapiens, UniProt Q9UHD2); experiment: Navigating the Kinome. Panel member name: TBK1; assay type: functional
[7] = target: G protein-coupled receptor kinase 5 (Homo sapiens, UniProt P34947); experiment: Navigating the Kinome. Panel member name: GPRK5; assay type: functional
[8] = target: Cyclin-dependent kinase 7 (Homo sapiens, UniProt P50613); assay type: functional;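 also: value comes from a kinome-wide kinase profiling panel in which CDK7 is one member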
[9] = target: Cyclin-dependent kinase 9 (Homo sapiens, UniProt P50750); assay type: functional;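 also: value from the CDK9 entry of a kinome-spanning kinase panel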
[10] = target: Dual specificity protein kinase CLK4 (Homo sapiens, UniProt Q9HAZ1); assay type: functional
[11] = target: Dual specificity mitogen-activated protein kinase kinase 2 (Homo sapiens, UniProt P36507); experiment: Navigating the Kinome. Panel member name: MAP2K2; assay type: functional
[12] = target: Megakaryocyte-associated tyrosine-protein kinase (Homo sapiens, UniProt P42679); assay type: functional;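 also: affinity measured as one member of a kinase panel (Navigating the Kinome) against MATK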
[13] = target: RAC-gamma serine/threonine-protein kinase (Homo sapiens, UniProt Q9Y243); assay type: functional
[14] = target: Eukaryotic elongation factor 2 kinase (Homo sapiens, UniProt O00418); assay type: functional
[15] = target: Tyrosine-protein kinase Lck (Homo sapiens, UniProt P06239); assay type: functional;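 also: lck was assayed as one member of a kinase panel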
[16] = target: Serine/threonine-protein kinase Chk2 (Homo sapiens, UniProt O96017); assay type: functional;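 also: CHEK2 entry within a kinome-wide screening panel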
SRSF protein kinase 1 = SRSF protein kinase 1 (Homo sapiens, UniProt Q96SB4); assay type: functional;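 also: measured as one member of a kinome-wide kinase profiling panel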
[17] = target: Mast/stem cell growth factor receptor Kit (Homo sapiens, UniProt P10721); assay type: functional;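 also: KIT entry within a kinase panel assay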
[18] = target: Casein kinase II subunit alpha (Homo sapiens, UniProt P68400); assay type: functional
[19] = target: Ribosomal protein S6 kinase alpha-5 (Homo sapiens, UniProt O75582); assay type: functional
[20] = target: Tyrosine-protein kinase Lyn (Homo sapiens, UniProt P07948); assay type: functional;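 also: lyn as one member of a kinase panel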
[21] = target: Tyrosine-protein kinase ITK/TSK (Homo sapiens, UniProt Q08881); assay type: functional;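 also: affinity for ITK measured as one member of a broad kinase panel profiling binding across the kinome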
[22] = target: Serine/threonine-protein kinase N2 (Homo sapiens, UniProt Q16513); assay type: functional
[23] = target: Inhibitor of nuclear factor kappa-B kinase subunit alpha (Homo sapiens, UniProt O15111); assay type: functional
[24] = target: Receptor-type tyrosine-protein kinase FLT3 (Homo sapiens, UniProt P36888); assay type: functional;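 also: FLT3 was tested as one member of a kinome-wide kinase panel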
[25] = target: MAP kinase-activated protein kinase 3 (Homo sapiens, UniProt Q16644); assay type: functional;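 also: value comes from a kinome-wide profiling panel in which MAPKAPK3 is one of the panel members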
[26] = target: Serine/threonine-protein kinase Chk1 (Homo sapiens, UniProt O14757); assay type: functional;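 also: measured as one member of a kinome-wide kinase profiling panel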
[27] = target: Tyrosine-protein kinase ABL1 (Homo sapiens, UniProt P00519); assay type: functional
Misshapen-like kinase 1 = Misshapen-like kinase 1 (Homo sapiens, UniProt Q8N4C8); assay type: functional;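 also: kinome panel screen with MINK as the panel member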
[28] = target: Serine/threonine-protein kinase Nek4 (Homo sapiens, UniProt P51957); assay type: functional
[29] = target: Interleukin-1 receptor-associated kinase 1 (Homo sapiens, UniProt P51617); assay type: functional;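 also: IRAK1 tested as one member of a kinome panel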
[30] = target: Maternal embryonic leucine zipper kinase (Homo sapiens, UniProt Q14680); assay type: functional
Aurora kinase B = Aurora kinase B (Homo sapiens, UniProt Q96GD4); assay type: functional
[31] = target: Homeodomain-interacting protein kinase 4 (Homo sapiens, UniProt Q8NE63); assay type: functional
[32] = target: Glycogen synthase kinase-3 beta (Homo sapiens, UniProt P49841); assay type: functional;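 also: value comes from a broad kinome profiling panel, with GSK3B as the panel member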
[33] = target: Receptor tyrosine-protein kinase erbB-4 (Homo sapiens, UniProt Q15303); assay type: functional;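 also: ERBB4 member of a kinome-wide kinase profiling panel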
[34] = target: Serine/threonine-protein kinase BRSK1 (Homo sapiens, UniProt Q8TDC3); assay type: functional;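 also: measured within a kinome-wide kinase panel, with the target listed as KIAA1811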
[35] = target: Tyrosine-protein kinase receptor UFO (Homo sapiens, UniProt P30530); assay type: functional
[36] = target: Tyrosine-protein kinase FRK (Homo sapiens, UniProt P42685); assay type: functional;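 also: FRK tested as one member of a kinome panel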
[37] = Luminescence Cell-Based Dose Confirmation HTS to Identify Activators of 5'UTR Stem-Loop Driven Alpha-Synuclein mRNA Translation in H4 Neuroglioblastoma Cells. [Related pubchem assays: 1829 (Project Summary), 1814 (Primary HTS)]; assay type: functional
[38] = HEK-293T viability loss after treatment – luminescence, T-cell screen hits, cytotoxicity control for TCR NF-kB inhibitor project, dose response (AID 489026); assay type: functional, cell-based;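 also: cells exposed to compound about 14 hours before the viability readout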
Nonstructural protein 1 = Nonstructural protein 1 (Influenza A virus, UniProt Q194T2); assay type: functional, Influenza A virus (A/California/07/2009(H1N1))
Chain of Nonstructural protein 1 (Q194T2 whole entry): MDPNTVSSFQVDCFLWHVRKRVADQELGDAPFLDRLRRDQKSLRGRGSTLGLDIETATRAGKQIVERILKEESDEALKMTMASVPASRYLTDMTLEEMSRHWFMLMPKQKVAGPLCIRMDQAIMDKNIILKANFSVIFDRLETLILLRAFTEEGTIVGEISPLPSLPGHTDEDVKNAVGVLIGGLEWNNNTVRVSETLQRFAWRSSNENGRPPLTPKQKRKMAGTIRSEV

Chain of Casein kinase II subunit alpha (P68400 whole entry): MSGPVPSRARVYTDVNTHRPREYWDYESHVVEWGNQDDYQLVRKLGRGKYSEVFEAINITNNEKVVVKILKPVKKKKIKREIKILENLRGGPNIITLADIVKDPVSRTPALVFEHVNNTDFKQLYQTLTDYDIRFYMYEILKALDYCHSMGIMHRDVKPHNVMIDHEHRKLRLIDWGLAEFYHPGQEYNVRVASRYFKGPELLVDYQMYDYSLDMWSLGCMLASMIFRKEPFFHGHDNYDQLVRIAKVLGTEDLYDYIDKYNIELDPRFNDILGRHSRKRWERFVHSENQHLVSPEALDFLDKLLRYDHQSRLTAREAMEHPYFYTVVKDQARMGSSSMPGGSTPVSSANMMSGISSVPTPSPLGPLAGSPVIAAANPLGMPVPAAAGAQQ
Chain of Tyrosine-protein kinase ABL1 (P00519 whole entry): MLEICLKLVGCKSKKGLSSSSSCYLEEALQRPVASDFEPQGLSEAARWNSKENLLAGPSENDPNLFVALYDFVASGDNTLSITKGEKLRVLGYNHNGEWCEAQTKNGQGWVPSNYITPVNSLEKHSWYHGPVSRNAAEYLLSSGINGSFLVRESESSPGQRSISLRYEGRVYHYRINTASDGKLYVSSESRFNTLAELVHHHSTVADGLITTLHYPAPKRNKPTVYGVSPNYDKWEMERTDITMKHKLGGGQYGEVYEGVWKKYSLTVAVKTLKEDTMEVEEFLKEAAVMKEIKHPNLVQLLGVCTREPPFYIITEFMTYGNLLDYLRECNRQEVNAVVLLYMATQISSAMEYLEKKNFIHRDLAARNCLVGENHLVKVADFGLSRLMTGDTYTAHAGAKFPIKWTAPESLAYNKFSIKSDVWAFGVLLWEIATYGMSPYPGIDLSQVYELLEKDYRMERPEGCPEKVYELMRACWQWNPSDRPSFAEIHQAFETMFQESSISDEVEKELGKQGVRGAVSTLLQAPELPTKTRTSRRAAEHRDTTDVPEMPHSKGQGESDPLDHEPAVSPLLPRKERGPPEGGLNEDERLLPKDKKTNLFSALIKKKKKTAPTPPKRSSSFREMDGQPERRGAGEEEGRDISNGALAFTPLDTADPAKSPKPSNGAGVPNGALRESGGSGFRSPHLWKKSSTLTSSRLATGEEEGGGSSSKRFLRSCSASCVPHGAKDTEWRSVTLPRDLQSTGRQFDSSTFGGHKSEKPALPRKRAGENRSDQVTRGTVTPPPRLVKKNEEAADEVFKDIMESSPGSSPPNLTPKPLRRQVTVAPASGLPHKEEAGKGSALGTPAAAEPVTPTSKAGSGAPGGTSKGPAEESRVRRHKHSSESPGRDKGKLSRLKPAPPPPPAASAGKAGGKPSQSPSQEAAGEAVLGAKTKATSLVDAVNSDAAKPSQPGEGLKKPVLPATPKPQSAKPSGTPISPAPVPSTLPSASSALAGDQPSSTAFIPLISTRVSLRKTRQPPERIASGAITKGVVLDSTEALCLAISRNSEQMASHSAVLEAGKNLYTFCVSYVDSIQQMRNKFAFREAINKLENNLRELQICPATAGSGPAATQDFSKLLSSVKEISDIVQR
Chain of Maternal embryonic leucine zipper kinase (Q14680 whole entry): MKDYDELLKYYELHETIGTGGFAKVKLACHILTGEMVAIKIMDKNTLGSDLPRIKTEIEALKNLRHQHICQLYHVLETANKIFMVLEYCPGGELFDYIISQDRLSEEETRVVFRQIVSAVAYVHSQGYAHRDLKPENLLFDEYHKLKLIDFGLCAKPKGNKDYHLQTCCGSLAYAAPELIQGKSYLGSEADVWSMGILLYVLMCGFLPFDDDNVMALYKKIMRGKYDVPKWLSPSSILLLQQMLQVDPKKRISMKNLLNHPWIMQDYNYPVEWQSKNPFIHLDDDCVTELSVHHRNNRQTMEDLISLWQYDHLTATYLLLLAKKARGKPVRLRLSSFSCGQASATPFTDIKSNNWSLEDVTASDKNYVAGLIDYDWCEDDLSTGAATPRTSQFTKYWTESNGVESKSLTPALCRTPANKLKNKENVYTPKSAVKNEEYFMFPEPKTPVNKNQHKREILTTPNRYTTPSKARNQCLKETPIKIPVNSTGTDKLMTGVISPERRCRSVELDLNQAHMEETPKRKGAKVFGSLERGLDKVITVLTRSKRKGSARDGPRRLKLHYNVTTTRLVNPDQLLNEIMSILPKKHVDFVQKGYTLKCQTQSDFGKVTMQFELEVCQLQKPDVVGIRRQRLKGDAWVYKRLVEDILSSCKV
Chain of Cyclin-dependent kinase 7 (P50613 whole entry): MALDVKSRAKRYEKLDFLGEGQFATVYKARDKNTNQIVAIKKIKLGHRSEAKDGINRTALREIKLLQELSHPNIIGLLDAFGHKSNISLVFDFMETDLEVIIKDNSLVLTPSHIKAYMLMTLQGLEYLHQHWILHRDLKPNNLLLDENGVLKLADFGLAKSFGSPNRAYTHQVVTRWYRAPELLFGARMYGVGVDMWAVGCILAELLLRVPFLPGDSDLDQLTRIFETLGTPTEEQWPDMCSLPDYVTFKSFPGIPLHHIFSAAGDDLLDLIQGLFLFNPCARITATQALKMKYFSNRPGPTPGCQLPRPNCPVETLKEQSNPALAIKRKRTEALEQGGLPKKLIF
Chain of MAP kinase-activated protein kinase 3 (Q16644 whole entry): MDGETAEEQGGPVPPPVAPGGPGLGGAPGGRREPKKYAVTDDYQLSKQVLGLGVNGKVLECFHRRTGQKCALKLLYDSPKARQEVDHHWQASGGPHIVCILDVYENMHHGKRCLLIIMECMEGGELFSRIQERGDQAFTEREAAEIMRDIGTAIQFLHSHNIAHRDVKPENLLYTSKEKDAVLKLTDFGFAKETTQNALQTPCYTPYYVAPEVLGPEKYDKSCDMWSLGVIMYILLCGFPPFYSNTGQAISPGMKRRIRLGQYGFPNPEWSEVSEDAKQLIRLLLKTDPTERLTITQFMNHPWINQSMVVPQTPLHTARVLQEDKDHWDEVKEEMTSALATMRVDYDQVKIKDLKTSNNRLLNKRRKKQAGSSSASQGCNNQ
Chain of Ribosomal protein S6 kinase alpha-5 (O75582 whole entry): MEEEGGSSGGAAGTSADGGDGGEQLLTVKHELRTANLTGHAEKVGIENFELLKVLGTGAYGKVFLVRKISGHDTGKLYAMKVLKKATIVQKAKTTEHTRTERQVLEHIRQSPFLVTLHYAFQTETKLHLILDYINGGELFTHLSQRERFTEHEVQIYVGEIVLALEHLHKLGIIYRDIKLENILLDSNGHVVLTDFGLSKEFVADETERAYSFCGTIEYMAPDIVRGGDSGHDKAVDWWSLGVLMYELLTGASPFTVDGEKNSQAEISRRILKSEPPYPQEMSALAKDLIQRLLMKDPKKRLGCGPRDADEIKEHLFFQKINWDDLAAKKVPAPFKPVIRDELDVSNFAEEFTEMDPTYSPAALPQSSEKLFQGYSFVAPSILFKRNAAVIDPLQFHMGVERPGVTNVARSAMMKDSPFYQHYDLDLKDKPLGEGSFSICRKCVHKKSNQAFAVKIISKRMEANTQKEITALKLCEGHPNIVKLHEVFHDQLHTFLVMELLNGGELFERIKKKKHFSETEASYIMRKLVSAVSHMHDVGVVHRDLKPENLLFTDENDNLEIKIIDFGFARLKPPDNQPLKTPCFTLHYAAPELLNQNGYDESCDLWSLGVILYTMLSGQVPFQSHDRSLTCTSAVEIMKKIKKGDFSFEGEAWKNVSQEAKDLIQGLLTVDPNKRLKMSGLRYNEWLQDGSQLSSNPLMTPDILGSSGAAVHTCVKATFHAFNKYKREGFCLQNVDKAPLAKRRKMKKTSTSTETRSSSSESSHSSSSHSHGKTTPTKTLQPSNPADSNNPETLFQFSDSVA
Chain of Bcl-2-related protein A1 (Q07440 whole entry): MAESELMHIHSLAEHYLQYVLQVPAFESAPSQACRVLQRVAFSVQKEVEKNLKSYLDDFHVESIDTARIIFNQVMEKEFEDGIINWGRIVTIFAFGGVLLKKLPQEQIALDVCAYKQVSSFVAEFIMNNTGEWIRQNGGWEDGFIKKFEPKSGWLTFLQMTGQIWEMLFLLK
Chain of Tyrosine-protein kinase Lck (P06239 whole entry): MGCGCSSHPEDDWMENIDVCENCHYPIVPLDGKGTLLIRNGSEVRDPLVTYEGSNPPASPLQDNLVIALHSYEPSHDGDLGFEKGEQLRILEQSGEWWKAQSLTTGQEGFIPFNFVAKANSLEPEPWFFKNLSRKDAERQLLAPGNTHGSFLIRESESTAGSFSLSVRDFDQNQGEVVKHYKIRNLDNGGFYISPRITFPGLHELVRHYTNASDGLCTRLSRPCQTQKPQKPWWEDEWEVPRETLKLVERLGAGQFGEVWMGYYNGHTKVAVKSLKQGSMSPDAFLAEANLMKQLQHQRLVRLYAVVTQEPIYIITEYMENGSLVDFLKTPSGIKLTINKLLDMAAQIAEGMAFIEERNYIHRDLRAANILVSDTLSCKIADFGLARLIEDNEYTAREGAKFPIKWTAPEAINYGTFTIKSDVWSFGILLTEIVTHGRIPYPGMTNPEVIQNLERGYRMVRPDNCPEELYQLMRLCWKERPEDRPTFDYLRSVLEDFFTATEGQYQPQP
Chain of Cyclin-dependent kinase 9 (P50750 whole entry): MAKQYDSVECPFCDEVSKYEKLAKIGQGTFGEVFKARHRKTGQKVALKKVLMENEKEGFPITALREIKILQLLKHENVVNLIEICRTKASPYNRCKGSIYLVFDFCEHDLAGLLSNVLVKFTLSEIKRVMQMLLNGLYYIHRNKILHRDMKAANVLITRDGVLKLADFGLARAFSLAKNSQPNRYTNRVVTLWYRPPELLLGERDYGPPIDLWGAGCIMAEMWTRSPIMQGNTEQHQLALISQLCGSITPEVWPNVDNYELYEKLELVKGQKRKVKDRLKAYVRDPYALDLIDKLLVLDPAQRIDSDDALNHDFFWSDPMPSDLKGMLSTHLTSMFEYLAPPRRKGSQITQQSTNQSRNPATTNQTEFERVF

CCCCCCCCCCC[N+](C)(C)CC/C=C1/c2ccccc2Sc2ccc(Cl)cc21
EC50 [1]: > 150 µM (inconclusive) | CC50 [2]: 25.4 µM (active) | IC50 (Bcl-2-related protein A1): 8.26 µM (active) | IC50 [3]: 4.77 µM (active) | AC50 [4]: 6.77 µM (active) | IC50 (Melanocortin receptor 4): 24.3 µM (inactive)

CCn1c(-c2nonc2N)nc2cncc(C(=O)N3CCC(N)C3)c21 (centres undefined)
Ki [5]: 0.0398 µM (active) | Ki [6]: > 3.16 µM (inactive) | Ki [7]: 3.98 µM (active) | Ki [8]: 2.51 µM (active) | Ki [9]: > 1.58 µM (inactive) | Ki [10]: 0.0631 µM (active) | Ki [11]: > 3.98 µM (inactive)

Cc1[nH]nc2ccc(-c3cncc(OCC(N)Cc4c[nH]c5ccccc45)c3)cc12 (centres undefined)
Ki [12]: > 2 µM (inactive) | Ki [13]: 0.00631 µM (active) | Ki [14]: > 3.98 µM (inactive) | Ki [15]: > 2.51 µM (inactive) | Ki [16]: 0.501 µM (active) | Ki (SRSF protein kinase 1): 1.26 µM (active) | Ki [17]: > 1.26 µM (inactive) | Ki [18]: > 6.31 µM (inactive) | Ki [19]: 0.000794 µM (active) | Ki [20]: 1.58 µM (active) | Ki [21]: > 1.58 µM (inactive) | Ki [22]: 0.00501 µM (active) | Ki [23]: 0.316 µM (active) | Ki [24]: 0.316 µM (active) | Ki [25]: > 10 µM (inactive) | Ki [26]: > 7.94 µM (inactive) | Ki [27]: > 0.631 µM (inactive) | Ki (Misshapen-like kinase 1): 0.02 µM (active) | Ki [28]: 1 µM (active) | Ki [29]: 0.251 µM (active) | Ki [30]: 0.316 µM (active) | Ki (Aurora kinase B): 0.631 µM (active) | Ki [31]: 0.501 µM (active) | Ki [32]: 0.01 µM (active) | Ki [33]: > 3.98 µM (inactive) | Ki [34]: 3.98 µM (active) | Ki [35]: 0.794 µM (active) | Ki [36]: > 2.51 µM (inactive)

COC(=O)c1ccccc1NC1=C/C(=N\S(=O)(=O)c2cccs2)c2ccccc2C1=O
EC50 [37]: > 120 µM (not active) | IC50 [38]: 0.98 µM (active) | IC50 (Nonstructural protein 1): 5.16 µM (active)
